Results as given in patent US10526311B2 (ASTEX THERAPEUTICS LIMITED, priority 2015, dated 2020).
Read-outs that look alike come from different tables or passages of the source.

How the values were obtained:
SN40R2 = experiment: Protocol B: SN40R2 CellTiter-Glo cell viability; details: 72 h
SJSA-1 = experiment: Protocol B: SJSA-1 CellTiter-Glo cell viability
[1] = test system: SN40R2 (MDM2 amplified, p53 mutated osteosarcoma); experiment: Protocol A: SN40R2 growth inhibition (SRB); details: 72 h; for IC50: read-out: SN40R2 IC50 (μM) (Protocol A); for inhibition at 30 µM: read-out: SN40R2 (Protocol A) % at concentration
[2] = test system: SJSA-1 (MDM2 amplified, p53 wild-type osteosarcoma); experiment: Protocol A: SJSA-1 growth inhibition (SRB); details: Homo sapiens, SJSA-1, 72 h
[3] = target: MDM2-p53 interaction (in vitro translated MDM2, biotinylated IP3 peptide) (Homo sapiens, UniProt Q00987); experiment: MDM2-p53 interaction 96-well plate binding assay (ELISA)
MDM2-p53 interaction (in vitro translated MDM2, biotinylated IP3 peptide), sequence (Q00987 whole entry): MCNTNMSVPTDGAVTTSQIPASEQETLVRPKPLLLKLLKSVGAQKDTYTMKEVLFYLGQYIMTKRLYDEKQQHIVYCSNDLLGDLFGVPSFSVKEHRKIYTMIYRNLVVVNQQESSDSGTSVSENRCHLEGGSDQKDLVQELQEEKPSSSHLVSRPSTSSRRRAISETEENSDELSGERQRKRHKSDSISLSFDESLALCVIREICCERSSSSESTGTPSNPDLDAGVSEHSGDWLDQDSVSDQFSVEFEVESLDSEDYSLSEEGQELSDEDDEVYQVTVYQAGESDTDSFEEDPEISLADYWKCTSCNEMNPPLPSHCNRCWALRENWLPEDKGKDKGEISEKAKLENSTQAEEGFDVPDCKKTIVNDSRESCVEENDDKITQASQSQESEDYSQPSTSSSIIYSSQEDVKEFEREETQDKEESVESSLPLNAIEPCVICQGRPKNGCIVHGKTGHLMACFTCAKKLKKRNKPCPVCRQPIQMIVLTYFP

[4] = read-out: SN40R2 IC50 (Protocol B), SN40R2 cells, CellTiter-Glo, 72 hrs
[5] = read-out: SJSA1 IC50 (Protocol B), SJSA-1 cells, CellTiter-Glo, 72 hrs
[6] = Homo sapiens, SJSA-1, 72 h, read-out: SJSA1 IC50 (Protocol B), SJSA-1 cells, CellTiter-Glo, 72 hrs
[7] = Homo sapiens, SJSA-1, 72 h, read-out: SJSA1 IC50 (μM) (Protocol B), SJSA-1, Protocol B (CellTiter-Glo), 72 hrs
[8] = read-out: SJSA-1 IC50 (μM) (Protocol A), SJSA-1, Protocol A (SRB), 72 hrs
[9] = read-out: SN40R2 IC50 (μM) (Protocol B)
[10] = read-out: SJSA-1 IC50 (Protocol A), SJSA-1 cells, SRB, 72 hrs

Row | SMILES | IC50 [1] | IC50 (SJSA-1; [7]) | IC50 [2, 8] | also measured
1 | CO[C@]1(c2ccc(Cl)cc2)c2c(F)cc(C(C)(O)c3cn(C)c(C)n3)cc2C(=O)N1Cc1ccc(Cl)cn1 (single isomer, unassigned) [Example 162] |  |  |  | IC50 (SN40R2; [4]): 13 µM; IC50 (SJSA-1; [5]): 0.22 µM
2 | CO[C@]1(c2ccc(Cl)cc2)c2c(F)cc(C(C)(O)C3CCN(C)CC3)cc2C(=O)N1Cc1ccc(Cl)cn1 (single isomer, unassigned) [Example 304] |  |  |  | IC50 (SN40R2; [4]): 9 µM
3 | CO[C@]1(c2ccc(Cl)cc2)c2c(F)cc(C(C)(O)C3CN(C)C3)cc2C(=O)N1Cc1ccc(Cl)cn1 (single isomer, unassigned) [Example 307] |  |  |  | IC50 (SN40R2; [4]): 11 µM; IC50 (SJSA-1; [6]): 1.9 µM
4 | CC(O)(c1cc(F)c2c(c1)C(=O)N(Cc1ccc(Cl)cn1)[C@@]2(OCC1(C#N)CC1)c1ccc(Cl)cc1)C1CCN(CCO)CC1 (single isomer, unassigned) [Example 420] |  |  |  | IC50 (SN40R2; read-out: SN40R2 IC50 (Protocol B)): 4.4 µM; IC50 (SJSA-1; [6]): 0.87 µM
5 | CCC(O)(c1cc(F)c2c(c1)C(=O)N(Cc1ncc(Cl)cn1)[C@@]2(O[C@H]1CCOC1)c1ccc(Cl)cc1)C1CCN(C)CC1 (single isomer, unassigned) [Example 449] | 18 µM | 0.012 µM | 0.041 µM | 
6 | CO[C@]1(c2ccc(Cl)cc2)c2c(F)cc(C(C)(O)c3cnn(C4CN(C(=O)OC(C)(C)C)C4)c3)cc2C(=O)N1Cc1ccc(Cl)cn1 (single isomer, unassigned) [Example 458] |  |  |  | IC50 (SN40R2; [9]): 12 µM
7 | CCC(O)(c1cc(F)c2c(c1)C(=O)N(Cc1ncc(Cl)cc1O)[C@@]2(O[C@H]1C[C@@H](O)C1)c1ccc(Cl)cc1)c1cn(C)cn1 (single isomer, unassigned) [Example 487] | 27 µM | 0.025 µM | 0.12 µM | 
8 | CCC(O)(c1cc(F)c2c(c1)C(=O)N(Cc1ccc(C#N)cn1)[C@@]2(OC[C@@H](C)O)c1ccc(Cl)cc1)C1(F)CCOCC1 (single isomer, unassigned) [Example 497] | 45 µM | 0.046 µM | 0.039 µM | 
9 | [2H]C([2H])(O)C1(C([2H])([2H])O[C@]2(c3ccc(Cl)cc3)c3c(F)cc(C(C)(C)O)cc3C(=O)N2Cc2ccc(C#N)cn2)CC1 [Example 5, 6-{[(1R)-1-(4-Chlorophenyl)-7-fluoro-1-({1-[hydroxy(^2H2)methyl]cyclopropyl}(^2H2)methoxy)-5-(2-hydroxypropan-2-yl)-3-oxo-2,3-dihydro-1H-isoindol-2-yl]methyl}pyridine-3-carbonitrile] |  |  |  | IC50 [3]: 0.0038 µM; inhibition at 30 µM [1]: 20%; IC50 (SJSA-1; [6]): 0.28 µM; IC50 [2, 10]: 0.2 µM
10 | CC(C)(O)c1cc(F)c2c(c1)C(=O)N(Cc1ccc(C#N)cn1)[C@@]2(OCC1(CO)CC1)c1ccc(Cl)cc1 [Example 36, 6-{[(1R)-1-(4-chlorophenyl)-7-fluoro-1-{[1-(hydroxymethyl)cyclopropyl]methoxy}-5-(2-hydroxypropan-2-yl)-3-oxo-2,3-dihydro-1H-isoindol-2-yl]methyl}pyridine-3-carbonitrile] |  |  |  | IC50 [3]: 0.0051 µM; inhibition at 30 µM [1]: 13%; IC50 (SJSA-1; [6]): 0.18 µM; IC50 [2, 10]: 0.21 µM
11 | CO[C@]1(c2ccc(Cl)cc2)c2c(F)cc(C(C)(O)c3ncc[nH]3)cc2C(=O)N1Cc1ccc(Cl)cn1 (stereo partly drawn) [Example 163, (3R)-3-(4-chlorophenyl)-2-[(5-chloropyridin-2-yl)methyl]-4-fluoro-6-[1-hydroxy-1-(1H-imidazol-2-yl)ethyl]-3-methoxy-2,3-dihydro-1H-isoindol-1-one] |  |  |  | IC50 (SN40R2; [4]): 13 µM; IC50 (SJSA-1; [6]): 3.1 µM
12 | CO[C@]1(c2ccc(Cl)cc2)c2c(F)cc(C(C)(O)c3nccs3)cc2C(=O)N1Cc1ccc(Cl)cn1 (stereo partly drawn) [Example 165, (3R)-3-(4-Chlorophenyl)-2-[(5-chloropyridin-2-yl)methyl]-4-fluoro-6-[1-hydroxy-1-(1,3-thiazol-2-yl)ethyl]-3-methoxy-2,3-dihydro-1H-isoindol-1-one] |  |  |  | IC50 (SN40R2; [4]): 13 µM; IC50 (SJSA-1; [5]): 1.4 µM
13 | CO[C@]1(c2ccc(Cl)cc2)c2c(F)cc(C(C)(O)C3CCN(c4ncccn4)CC3)cc2C(=O)N1Cc1ccc(Cl)cn1 (stereo partly drawn) [Example 286, (3R)-3-(4-chlorophenyl)-2-[(5-chloropyridin-2-yl)methyl]-4-fluoro-6-{1-hydroxy-1-[1-(pyrimidin-2-yl)piperidin-4-yl]ethyl}-3-methoxy-2,3-dihydro-1H-isoindol-1-one] |  |  |  | IC50 (SN40R2; [4]): 12 µM
14 | CO[C@]1(c2ccc(Cl)cc2)c2c(F)cc(C(C)(O)C3CCN(C(=O)CN(C)C)CC3)cc2C(=O)N1Cc1ccc(Cl)cn1 (stereo partly drawn) [Example 299, (3R)-3-(4-chlorophenyl)-2-[(5-chloropyridin-2-yl)methyl]-6-(1-{1-[2-(dimethylamino)acetyl]piperidin-4-yl}-1-hydroxyethyl)-4-fluoro-3-methoxy-2,3-dihydro-1H-isoindol-1-one] |  |  |  | IC50 (SN40R2; [4]): 8 µM; IC50 (SJSA-1; [6]): 2 µM
15 | CCC(O)(c1cc(F)c2c(c1)C(=O)N(Cc1ncc(C#N)cn1)[C@@]2(OC)c1ccc(Cl)cc1)[C@H]1CC[C@H](O)CC1 (stereo partly drawn) [Example 504, 2-{[(1R)-1-(4-chlorophenyl)-7-fluoro-5-{1-hydroxy-1-[trans-4-hydroxycyclohexyl]propyl}-1-methoxy-3-oxo-2,3-dihydro-1H-isoindol-2-yl]methyl}pyrimidine-5-carbonitrile] | 48 µM | 0.034 µM | 0.039 µM | 

Second part, led by results:

Row | IC50 [1] | IC50 (SJSA-1; [7]) | IC50 [2, 8] | SMILES | also measured
16 | 37 µM | 0.033 µM | 0.035 µM | CCC(O)(c1cc(F)c2c(c1)C(=O)N(Cc1ccc(C#N)cn1)[C@@]2(OC)c1ccc(Cl)cc1)[C@H]1CC[C@H](O)CC1 (single isomer, unassigned) [Example 521] | 
17 | 13 µM |  | 0.19 µM | CCC(O)(c1cc(F)c2c(c1)C(=O)N(Cc1ncc(Cl)cn1)[C@@]2(O[C@H]1CCOC1)c1ccc(Cl)cc1)C1(F)CCNCC1 (single isomer, unassigned) [Example 541] | IC50 (SN40R2; [9]): 10 µM
18 | 7.4 µM | 0.041 µM | 0.032 µM | CCC(O)(c1cc(F)c2c(c1)C(=O)N(Cc1ncc(Cl)cn1)[C@@]2(OC)c1ccc(Cl)cc1)C1(F)CCNCC1 (single isomer, unassigned) [Example 544] | 
19 | 6.3 µM | 0.17 µM | 0.14 µM | CCC(O)(c1cc(F)c2c(c1)C(=O)N(Cc1ccc(Cl)cn1)[C@@]2(O[C@H]1CCOC1)c1ccc(Cl)cc1)C1(F)CCNCC1 (single isomer, unassigned) [Example 548] | 
20 | 21 µM | 0.02 µM | 0.028 µM | CCC(O)(c1cc(F)c2c(c1)C(=O)N(Cc1ncc(Cl)cn1)[C@@]2(OC)c1ccc(Cl)cc1)C1(F)CCN(C2COC2)CC1 (single isomer, unassigned) [Example 552] | 
21 | 35 µM | 0.082 µM | 0.22 µM | CN1CCC(C(C)(O)c2cc(F)c3c(c2)C(=O)N(Cc2ncc(Cl)cn2)[C@@]3(OCC2(F)COC2)c2ccc(Cl)cc2)CC1 (single isomer, unassigned) [Example 558] | 
22 | 26 µM | 0.065 µM | 0.021 µM | CCC(O)(c1cc(F)c2c(c1)C(=O)N(Cc1ncc(C#N)cn1)[C@@]2(O[C@H]1CCOC1)c1ccc(Cl)cc1)C1(F)CCN(C)CC1 (single isomer, unassigned) [Example 561] | 
23 | 33 µM | 0.035 µM | 0.045 µM | CCC(O)(c1cc(F)c2c(c1)C(=O)N(Cc1ncc(Cl)cn1)[C@@]2(OCCO)c1ccc(Cl)cc1)C1(F)CCN(C)CC1 (single isomer, unassigned) [Example 565] | 
24 | 17 µM | 0.0085 µM | 0.023 µM | CCC(O)(c1cc(F)c2c(c1)C(=O)N(Cc1ncc(Cl)cn1)[C@@]2(O[C@H]1CCOC1)c1ccc(Cl)cc1)C1(F)CCN(C)CC1 (single isomer, unassigned) [Example 571] | 
25 | 17 µM | 0.016 µM | 0.021 µM | CCC(O)(c1cc(F)c2c(c1)C(=O)N(Cc1ncc(C#N)cn1)[C@@]2(OCC1(C#N)CC1)c1ccc(Cl)cc1)C1(F)CCN(C)CC1 (single isomer, unassigned) [Example 574] | 
26 | 21 µM | 0.066 µM | 0.028 µM | CCC(O)(c1cc(F)c2c(c1)C(=O)N(Cc1ncc(C#N)cn1)[C@@]2(OC)c1ccc(Cl)cc1)C1(F)CCN(C)CC1 (single isomer, unassigned) [Example 575] | 
27 | 36 µM |  | 0.031 µM | CC[C@@](O)(c1cc(F)c2c(c1)C(=O)N(Cc1ncc(Cl)cn1)[C@@]2(OC)c1ccc(Cl)cc1)C1CCN(C2COC2)CC1 [Example 551, (3R)-3-(4-chlorophenyl)-2-[(5-chloropyrimidin-2-yl)methyl]-4-fluoro-6-[(1S)-1-hydroxy-1-[1-(oxetan-3-yl)piperidin-4-yl]propyl]-3-methoxy-2,3-dihydro-1H-isoindol-1-one] | 
28 | 27 µM | 0.0064 µM | 0.056 µM | CC[C@@](O)(c1cc(F)c2c(c1)C(=O)N(Cc1ncc(Cl)cn1)[C@@]2(OCC1(CO)CC1)c1ccc(Cl)cc1)C1CCN(C)CC1 [Example 556, (3R)-3-(4-chlorophenyl)-2-[(5-chloropyrimidin-2-yl)methyl]-4-fluoro-6-[(1S)-1-hydroxy-1-(1-methylpiperidin-4-yl)propyl]-3-{[1-(hydroxymethyl)cyclopropyl]methoxy}-2,3-dihydro-1H-isoindol-1-one] | 
